This note sets out measurements from PubChem BioAssay (NCI).

Test systems include COLO 205 colon; EKVX NSCLC; 786-0 renal; MDA-N; RXF 393 renal; NCI-H460 lung; HS 578T breast; NCI/ADR-RES ovarian; SK-OV-3 ovarian; MCF7 breast; MDA-MB-435; NCI-H23 lung; SF-295 CNS; MALME-3M melanoma; LOX IMVI melanoma; CAKI-1 renal; SK-MEL-5 melanoma; A498 renal.
What all share (test): inhibition of tumour cell growth, NCI panel, 48 h

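Assay format: 96-well plates, 48-hour exposure. The concentration for full growth arrest is given as TGI.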

For `CC(C)(C)OC(=O)N1CCC2(C)CC(=O)CC=C12` (configuration not stated), the TGI in the assay with COLO 205 colon, in the assay with EKVX NSCLC, with 786-0 renal, with MDA-N, in the assay with RXF 393 renal and in the assay on NCI-H460 lung was > 100 µM throughout. The TGI with HS 578T breast, in the assay with NCI/ADR-RES ovarian, in the assay with SK-OV-3 ovarian, in the assay with MCF7 breast, with MDA-MB-435 and in the assay with NCI-H23 lung was > 100 µM in each case. Further, the TGI in the assay with SF-295 CNS, with MALME-3M melanoma, in the assay with LOX IMVI melanoma, with CAKI-1 renal and in the assay with SK-MEL-5 melanoma was > 100 µM in each case.

For the molecule `CCN(CC)c1c(-c2c(N(CC)CC)c(OC(C)=O)c3sccn3c2=O)c(=O)n2ccsc2c1OC(C)=O`, the TGI is > 100 µM in the assay with COLO 205 colon; > 100 µM with EKVX NSCLC; 90.1 µM in the assay on 786-0 renal; > 100 µM in the assay on MDA-N; > 100 µM with NCI-H460 lung; > 100 µM in the assay on HS 578T breast. Further, the TGI with A498 renal, in the assay with NCI/ADR-RES ovarian, in the assay on SK-OV-3 ovarian, in the assay on MDA-MB-435, with NCI-H23 lung and in the assay with SF-295 CNS was > 100 µM throughout. The TGI with MALME-3M melanoma, with LOX IMVI melanoma, in the assay on CAKI-1 renal and with SK-MEL-5 melanoma was > 100 µM in each case.

Regarding `c1ccc2c(c1)cc1c3[nH]c4ccccc4c3ccn21`, the TGI was 3.41 µM with COLO 205 colon; > 10 µM with EKVX NSCLC; > 10 µM in the assay with 786-0 renal; > 10 µM in the assay with MDA-N; > 10 µM in the assay with RXF 393 renal; > 10 µM in the assay on NCI-H460 lung. The TGI with HS 578T breast, in the assay on NCI/ADR-RES ovarian, in the assay on SK-OV-3 ovarian, in the assay with MCF7 breast, with MDA-MB-435 and in the assay with NCI-H23 lung was > 10 µM throughout. In addition, the TGI in the assay on SF-295 CNS was > 10 µM; in the assay with MALME-3M melanoma it was 4.48 µM; with LOX IMVI melanoma, > 10 µM; in the assay on CAKI-1 renal, > 10 µM; with SK-MEL-5 melanoma, > 10 µM.

Regarding `CN(N)/N=N/c1nc[nH]c1[N+](=O)[O-]`, the TGI is > 100 µM in the assay on COLO 205 colon; > 100 µM in the assay on EKVX NSCLC; 55.2 µM in the assay on 786-0 renal; > 100 µM with MDA-N; > 100 µM with RXF 393 renal; > 100 µM in the assay on NCI-H460 lung. Besides, the TGI with HS 578T breast, with A498 renal, in the assay with NCI/ADR-RES ovarian, in the assay on SK-OV-3 ovarian, with MDA-MB-435 and in the assay on NCI-H23 lung was > 100 µM in each case. For the same molecule, the TGI in the assay with SF-295 CNS was > 100 µM; in the assay on MALME-3M melanoma, > 100 µM; in the assay on LOX IMVI melanoma it was > 100 µM; with CAKI-1 renal, 40.9 µM; in the assay with SK-MEL-5 melanoma, > 100 µM.

For `Cc1ccc(C2=C(C#N)C(=O)N3CCN=C3S2)cc1`, the TGI in the assay on COLO 205 colon, with EKVX NSCLC, with 786-0 renal, in the assay on MDA-N, with RXF 393 renal and in the assay with NCI-H460 lung was > 100 µM in each case. Further, the TGI with NCI/ADR-RES ovarian, in the assay on SK-OV-3 ovarian, with MCF7 breast, in the assay with MDA-MB-435, in the assay on NCI-H23 lung and in the assay with SF-295 CNS was > 100 µM in each case. Also, the TGI in the assay with MALME-3M melanoma, with LOX IMVI melanoma, in the assay with CAKI-1 renal and with SK-MEL-5 melanoma was > 100 µM in each case.

For `COc1c(Br)cc(/C=C(\C#N)c2cccnc2)cc1Br`, the TGI in the assay with COLO 205 colon, in the assay on EKVX NSCLC, in the assay on 786-0 renal, with MDA-N, with RXF 393 renal and in the assay with NCI-H460 lung was > 100 µM in each case. Moreover, the TGI in the assay with NCI/ADR-RES ovarian, in the assay with SK-OV-3 ovarian, in the assay with MCF7 breast, in the assay on NCI-H23 lung, with SF-295 CNS and with MALME-3M melanoma was > 100 µM each time. Moreover, the TGI with CAKI-1 renal and with SK-MEL-5 melanoma was > 100 µM in each case.

In the case of `O=C(c1ccccc1)N1OCCC1Nc1ccc(Br)cc1` (configuration not stated), the TGI in the assay with COLO 205 colon was 4.33 µM; with EKVX NSCLC it was > 10 µM; with 786-0 renal, > 10 µM; in the assay with MDA-N, > 10 µM; in the assay on RXF 393 renal, > 10 µM; in the assay on NCI-H460 lung it was > 10 µM. In addition, the TGI with HS 578T breast, in the assay on NCI/ADR-RES ovarian, with SK-OV-3 ovarian, in the assay with MCF7 breast, in the assay on MDA-MB-435 and with NCI-H23 lung was > 10 µM throughout. Further, the TGI with SF-295 CNS, in the assay with MALME-3M melanoma, in the assay on LOX IMVI melanoma, with CAKI-1 renal and in the assay on SK-MEL-5 melanoma was > 10 µM throughout.

Consider `C=CCc1ccccc1CC1(OCC)OC(=O)c2ccccc21` (configuration not stated), for which the TGI was > 100 µM in the assay with COLO 205 colon; > 100 µM in the assay on EKVX NSCLC; > 100 µM in the assay on 786-0 renal; 71.8 µM with MDA-N; > 100 µM in the assay with RXF 393 renal; > 100 µM in the assay with NCI-H460 lung. Moreover, the TGI was > 100 µM in the assay on HS 578T breast; > 100 µM with A498 renal; > 100 µM in the assay with SK-OV-3 ovarian; > 100 µM with MCF7 breast; 96.9 µM with MDA-MB-435; > 100 µM in the assay with NCI-H23 lung. For the same molecule, the TGI in the assay on SF-295 CNS, in the assay on CAKI-1 renal and in the assay on SK-MEL-5 melanoma was > 100 µM throughout.

With `CC(=O)N(C(C)=O)n1c(-c2ccccc2)n[nH]c1=O`, the TGI in the assay with COLO 205 colon, in the assay on EKVX NSCLC, with 786-0 renal, with MDA-N, with RXF 393 renal and in the assay with NCI/ADR-RES ovarian was > 100 µM throughout. The TGI in the assay with SK-OV-3 ovarian, in the assay with MCF7 breast, with MDA-MB-435, in the assay with NCI-H23 lung, in the assay on SF-295 CNS and in the assay with LOX IMVI melanoma was > 100 µM throughout. For the same molecule, in the assay on SK-MEL-5 melanoma, the TGI was > 100 µM.
